Experimental findings from publication doi:10.1101/2024.08.16.608276v1, “The kinetoplastid kinetochore protein KKT23 acetyltransferase is a structural homolog of GCN5 that acetylates the histone H2A C-terminal tail” (biorxiv, 2024) are described below.

This assay concerns the target T1, KKT23^2–348 (Trypanosoma brucei, UniProt Q38AU6).
T1 construct: gene Tb10.70.0180; full-length recombinant protein (residues 2-348), E. coli, His-tag cut by TEV, monomer, calculated 39 kDa; strain printed for the cell lines only
T1 sequence (Q38AU6 2-348): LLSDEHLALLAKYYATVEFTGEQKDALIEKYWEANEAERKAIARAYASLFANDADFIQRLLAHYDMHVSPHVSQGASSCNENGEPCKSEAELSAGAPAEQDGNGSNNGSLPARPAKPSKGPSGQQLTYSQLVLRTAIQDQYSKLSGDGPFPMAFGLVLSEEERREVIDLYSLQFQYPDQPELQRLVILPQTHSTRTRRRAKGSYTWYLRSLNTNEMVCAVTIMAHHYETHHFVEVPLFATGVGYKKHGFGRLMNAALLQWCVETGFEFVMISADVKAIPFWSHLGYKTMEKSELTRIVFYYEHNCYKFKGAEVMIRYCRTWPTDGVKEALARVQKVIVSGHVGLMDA
Description: histone acetyltransferase assay, anti-acetyl-lysine immunoblot and mass spectrometry. The format is biochemical. To be noted: co-substrate reconstituted T. brucei nucleosomes (H2A C-terminal tail); up to 200 uM acetyl-CoA; pH 8.0, 30 C, 1 h. A general note: A western blot detects proteins with antibodies after separation by electrophoresis.

Turning to `CC(=O)SCCNC(=O)CCNC(=O)[C@H](O)C(C)(C)COP(=O)(O)OP(=O)(O)OC[C@H]1O[C@@H](n2cnc3c(N)ncnc32)[C@H](O)[C@@H]1OP(=O)(O)O` [acetyl coenzyme A], the “histone acetyltransferase assay, anti-acetyl-lysine immunoblot and mass spectrom” value is “recombinant KKT23 was incubated with acetyl-CoA and nucleosomes reconstituted using either T. brucei or H. sapiens”.
